Broadly, the Cmax is the peak of the concentration-time curve. What is called Tmax is the time from dosing to the highest level. The AUC is concentration integrated over time. A low value points to less exposure.

Experimental findings from paper PMC9558423 (Molecular nutrition & food research, 2020) are described below.

The conditions of series [1]: for Qualitative Tmax (urine collection with greatest excretion): 12h urine collections, np = no peak; for Cmax (nmol excreted) / Tmax: urine; for Cmax (nmol excreted): mean ± SD; for Time of maximal urinary excretion after dosing: as stated in text/figure legend, doses not separated; for Tmax: female, Sprague Dawley, rat, po.
For series [2] the following is noted: for Qualitative Tmax (blood collection with greatest plasma level): blood every 6h, np = no peak; for Plasma AUC: plasma 0–48h, trapezoidal; for Cmax / AUC / Tmax: plasma.
The conditions of series [3]: rat, in vivo, 350 mg/kg.
[4] abbreviates: High dose (1000 mg/kg bw), mean ± SD.
Where [5] appears, read: Medium dose (350 mg/kg bw), mean ± SD.
The mark [6] stands for this setting: Low dose (75 mg/kg bw), mean ± SD.
The mark [7] stands for this setting: female, Sprague Dawley, rat, po, 75 mg/kg.
Setting [8] is: female, Sprague Dawley, rat, po, 350 mg/kg.
Setting [9] is: female, Sprague Dawley, rat, po, 1000 mg/kg.

Counter-ions that a name gives are not always drawn. Like-named read-outs stand apart in the source and are kept apart here. Marks after values point to notes of the source that are not given here. Bounds are passed on as bounds.

Consider `O=C(O)CCc1cccc(O)c1` [3-OH-PPA, 3-hydroxyphenylpropionic acid], for which the “Qualitative Tmax (urine collection with greatest excretion)” value was in the range of 12 to 24 h in series [1] (High dose (1000 mg/kg bw)), 0 to 12 h in series [1] (Low dose (75 mg/kg bw)) and 0 to 12 h in series [1] (Medium dose (350 mg/kg bw)). The “Cmax (nmol excreted)” value in series [1] (High dose (1000 mg/kg bw)) is 275 ± 34 nmol excreted; in series [1] (Low dose (75 mg/kg bw)) it was 25.4 ± 6.9 nmol excreted; in series [1] (Medium dose (350 mg/kg bw)), 177 ± 24 nmol excreted. The “Qualitative Tmax (blood collection with greatest plasma level)” value in series [2] (High dose (1000 mg/kg bw)) and in series [2] (Medium dose (350 mg/kg bw)) was 12 h in each case. Moreover, the “Plasma AUC” value in series [2] (setting [4]) was 8.00 ± 2.22 ^x uM*h; in series [2] (setting [5]), 2.46 ± 0.95 ^w uM*h. Also, the Cmax was 507 ± 107 nM in series [2] (setting [4]) and 161 ± 92 nM in series [2] (setting [5]).
On to `COc1ccc(-c2oc3cc(O)cc(O)c3c(=O)c2O)cc1O` [4-OMe-quercetin, 4-methoxyquercetin], for which, in series [3], the “Qualitative Tmax (urine collection with greatest excretion)” value lay within 0 to 12 h.
`COc1cc(/C=C/C(=O)O)ccc1OS(=O)(=O)O` [Ferulic acid sulfate]: the “Qualitative Tmax (urine collection with greatest excretion)” value in series [1] (High dose (1000 mg/kg bw)) was 0 to 12 h; in series [1] (Low dose (75 mg/kg bw)), “np”; in series [1] (Medium dose (350 mg/kg bw)), 0 to 12 h. Moreover, the “Cmax (nmol excreted)” value was 18.7 ± 14.9 nmol excreted in series [1] (High dose (1000 mg/kg bw)), “np” in series [1] (Low dose (75 mg/kg bw)) and 7.41 ± 3.52 nmol excreted in series [1] (Medium dose (350 mg/kg bw)). Also, the “Qualitative Tmax (blood collection with greatest plasma level)” value was 6 h in series [2] (High dose (1000 mg/kg bw)), “np” in series [2] (Low dose (75 mg/kg bw)) and 6 h in series [2] (Medium dose (350 mg/kg bw)). For the same molecule, the “Plasma AUC” value is on record as 9.12 ± 2.89 ^x uM*h in series [2] (setting [4]), 6.16 ± 1.50 ^x uM*h in series [2] (setting [6]) and 6.33 ± 3.04 ^x uM*h in series [2] (setting [5]). The figures for the Cmax in series [2] (setting [4]), in series [2] (setting [6]) and in series [2] (setting [5]) were 825 ± 317 nM, “np” and 262 ± 169 nM, respectively.
For the molecule `COc1cc(/C=C/C(=O)O)ccc1O` [Ferulic acid, ferulic acid], the results for the “Qualitative Tmax (urine collection with greatest excretion)” value in series [1] (High dose (1000 mg/kg bw)), in series [1] (Low dose (75 mg/kg bw)) and in series [1] (Medium dose (350 mg/kg bw)) were 0 to 24 h, “np” and 0 to 24 h, respectively. For the same molecule, the “Cmax (nmol excreted)” value was “np” in series [1] (Low dose (75 mg/kg bw)) and 11.7 ± 3.0 nmol excreted in series [1] (Medium dose (350 mg/kg bw)). The “Plasma AUC” value in series [2] (setting [4]) was “trace”.
For the molecule `O=C(O)CNC(=O)c1ccccc1` [Hippuric acid, hippuric acid], the “Cmax (nmol excreted)” value in series [1] (High dose (1000 mg/kg bw)) is on record as 598 ± 146 nmol excreted; in series [1] (Low dose (75 mg/kg bw)) it was “np”; in series [1] (Medium dose (350 mg/kg bw)) it was 700 ± 78 nmol excreted. In addition, the “Qualitative Tmax (urine collection with greatest excretion)” value in series [1] (Low dose (75 mg/kg bw)) was “np”. For the same molecule, the “Time of maximal urinary excretion after dosing” value in series [1] is 12 to 24 h. For the same molecule, the Tmax is 12 to 24 h in series [1] (350 mg/kg), 12 to 24 h in series [1] (1000 mg/kg), 12 h in series [2] (setting [8]) and 24 to 36 h in series [2] (setting [9]). Also, in series [1] (medium (350) vs high (1000 mg/kg bw) dose), the “Amount excreted in urine, medium vs high dose” value is “no difference”. Also, the “Qualitative Tmax (blood collection with greatest plasma level)” value in series [2] (Low dose (75 mg/kg bw)) is “np”. In addition, the Cmax result in series [2] (setting [6]) was “np”; in series [2] (setting [8]), 1540 ± 510 nM; in series [2] (setting [9]), 2060 ± 806 nM. Moreover, the values for the AUC in series [2] (setting [7]), in series [2] (setting [8]) and in series [2] (setting [9]) were 25.8 ± 3.08 µM·h, 47.7 ± 5.13 µM·h and 74.3 ± 7.54 µM·h, respectively.
With `O=C(O)[C@H]1O[C@@H](Oc2c(-c3ccc(O)c(O)c3)oc3cc(O)cc(O)c3c2=O)[C@H](O)[C@@H](O)[C@@H]1O` [Quercetin glucuronide, quercetin-3-O-glucuronide], the “Cmax (nmol excreted)” value in series [1] (High dose (1000 mg/kg bw)) is listed as 1.83 ± 0.28 nmol excreted; in series [1] (Low dose (75 mg/kg bw)), “np”; in series [1] (Medium dose (350 mg/kg bw)), 0.72 ± 0.14 nmol excreted. Further, the “Qualitative Tmax (urine collection with greatest excretion)” value in series [1] (Low dose (75 mg/kg bw)) was “np”. The Tmax was 0 to 12 h in series [1] (350 mg/kg), 0 to 12 h in series [1] (1000 mg/kg), 6 h in series [2] (setting [8]) and 6 h in series [2] (setting [9]). Further, the “Qualitative Tmax (blood collection with greatest plasma level)” value in series [2] (Low dose (75 mg/kg bw)) is reported as “np”. Also, the values for the Cmax entry in series [2] (setting [6]), in series [2] (setting [8]) and in series [2] (setting [9]) were “np”, 8 ± 2 nM and 23 ± 5 nM, respectively. For the same molecule, the AUC in series [2] (setting [7]) was found to be 0.32 ± 0.01 µM·h; in series [2] (setting [8]) it was 0.34 ± 0.05 µM·h; in series [2] (setting [9]), 0.57 ± 0.14 µM·h.
`COc1cc(C(=O)O)cc(OC)c1O` [Syringic acid, syringic acid]: the figures for the “Cmax (nmol excreted)” value in series [1] (High dose (1000 mg/kg bw)), in series [1] (Low dose (75 mg/kg bw)) and in series [1] (Medium dose (350 mg/kg bw)) were 35.1 ± 6.0 nmol excreted, 1.03 ± 0.30 nmol excreted and 12.2 ± 3.0 nmol excreted, respectively. Further, the “Time of maximal urinary excretion after dosing” value in series [1] is no more than 12 h. In addition, the Tmax in series [1] (75 mg/kg), in series [1] (350 mg/kg) and in series [1] (1000 mg/kg) was 0 to 12 h throughout. Besides, the “Plasma AUC” value in series [2] (setting [4]) is “trace”.
Take Caffeic acid glucuronide: the “Qualitative Tmax (urine collection with greatest excretion)” value in series [1] (High dose (1000 mg/kg bw)) is 0 to 12 h; in series [1] (Low dose (75 mg/kg bw)), “np”; in series [1] (Medium dose (350 mg/kg bw)) it was 0 to 12 h. Also, the “Cmax (nmol excreted)” value in series [1] (High dose (1000 mg/kg bw)) is reported as 379 ± 134 nmol excreted; in series [1] (Low dose (75 mg/kg bw)), “np”; in series [1] (Medium dose (350 mg/kg bw)), 261 ± 50 nmol excreted. Further, the “Qualitative Tmax (blood collection with greatest plasma level)” value in series [2] (High dose (1000 mg/kg bw)) is 6 h; in series [2] (Low dose (75 mg/kg bw)), “np”; in series [2] (Medium dose (350 mg/kg bw)) it was 6 h. For the same molecule, the “Plasma AUC” value in series [2] (setting [4]) is given as 0.92 ± 0.20 ^y uM*h; in series [2] (setting [6]), 0.36 ± 0.06 ^w uM*h; in series [2] (setting [5]), 0.55 ± 0.11 ^x uM*h. The Cmax in series [2] (setting [4]) is 84 ± 20 nM; in series [2] (setting [6]) it was “np”; in series [2] (setting [5]), 21 ± 8 nM.
